{"source": "paper PMC2652632", "about": "(Biochemistry, 2008)", "key": {"human IDE (IDE-CF) [1]": {"biological_target": "T1, human IDE (IDE-CF) (Homo sapiens, UniProt P14735, C110L/C171S/C178A/C257V/C414L/C573N/C590S/C789S/C812A/C819A/C904S/C966N/C974A)", "T1 sequence (P14735 whole entry C110L/C171S/C178A/C257V/C414L/C573N/C590S/C789S/C812A/C819A/C904S/C966N/C974A)": "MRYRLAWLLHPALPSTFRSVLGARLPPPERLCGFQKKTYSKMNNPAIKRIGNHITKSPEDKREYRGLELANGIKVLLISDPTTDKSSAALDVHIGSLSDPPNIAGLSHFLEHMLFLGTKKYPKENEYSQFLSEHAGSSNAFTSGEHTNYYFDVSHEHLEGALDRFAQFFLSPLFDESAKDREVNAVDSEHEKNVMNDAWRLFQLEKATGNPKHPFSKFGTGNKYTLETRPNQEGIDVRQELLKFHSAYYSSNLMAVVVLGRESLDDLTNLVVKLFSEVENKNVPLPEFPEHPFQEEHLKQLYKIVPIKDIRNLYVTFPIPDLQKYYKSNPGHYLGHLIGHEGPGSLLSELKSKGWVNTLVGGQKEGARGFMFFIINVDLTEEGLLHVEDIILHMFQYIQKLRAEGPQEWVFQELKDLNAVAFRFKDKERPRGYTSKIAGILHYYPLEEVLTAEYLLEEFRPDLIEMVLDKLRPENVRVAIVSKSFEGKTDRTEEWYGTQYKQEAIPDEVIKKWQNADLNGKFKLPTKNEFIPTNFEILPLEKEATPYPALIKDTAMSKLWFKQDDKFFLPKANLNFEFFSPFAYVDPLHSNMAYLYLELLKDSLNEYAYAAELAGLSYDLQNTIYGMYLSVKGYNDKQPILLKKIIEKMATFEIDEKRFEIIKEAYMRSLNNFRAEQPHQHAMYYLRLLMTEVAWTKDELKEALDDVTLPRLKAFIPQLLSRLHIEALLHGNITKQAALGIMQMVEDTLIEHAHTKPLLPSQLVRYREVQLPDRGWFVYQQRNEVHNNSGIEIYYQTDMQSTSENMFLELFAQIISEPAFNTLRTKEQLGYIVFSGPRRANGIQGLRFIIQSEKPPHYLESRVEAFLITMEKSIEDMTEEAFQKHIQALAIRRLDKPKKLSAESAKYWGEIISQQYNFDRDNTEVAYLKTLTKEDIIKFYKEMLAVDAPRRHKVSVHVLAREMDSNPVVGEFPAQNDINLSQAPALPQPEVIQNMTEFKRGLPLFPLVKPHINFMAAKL", "assay": "Kinetic analysis of kinin degradation by IDE-CF", "assay_type": "biochemical", "settings": "for kcat for degradation by IDE: IDE-CF, competition with 0.5 μM substrate V, 50 mM potassium phosphate pH 7.3, 37 °C"}, "human IDE (IDE-CF) [2]": {"biological_target": "T1, human IDE (IDE-CF)", "assay": "Mass spectrometry analysis of kinins degradation by IDE-CF", "assay_type": "biochemical", "settings": "for major cleavage site: 50 mM potassium phosphate pH 7.3, MALDI-TOF and MS-MS"}, "IDE [3]": {"test_system": "IDE", "settings": "ref 16 (b4: ref 16, 17); cited from earlier work"}, "ACE": {"test_system": "ACE", "settings": "cited from earlier work"}, "NEP": {"test_system": "NEP", "settings": "cited from earlier work"}, "IDE [4]": {"test_system": "IDE", "assay": "Degradation of insulin and short substrates by IDE", "assay_type": "biochemical", "settings": "insulin 100 nM vs kinins 4–7 mM"}, "IDE [5]": {"test_system": "IDE", "settings": "insulin; literature value, reference not given; cited from earlier work"}, "IDE-WT [6]": {"biological_target": "T2, IDE-WT (Homo sapiens, UniProt P14735)", "T2 sequence (P14735 whole entry)": "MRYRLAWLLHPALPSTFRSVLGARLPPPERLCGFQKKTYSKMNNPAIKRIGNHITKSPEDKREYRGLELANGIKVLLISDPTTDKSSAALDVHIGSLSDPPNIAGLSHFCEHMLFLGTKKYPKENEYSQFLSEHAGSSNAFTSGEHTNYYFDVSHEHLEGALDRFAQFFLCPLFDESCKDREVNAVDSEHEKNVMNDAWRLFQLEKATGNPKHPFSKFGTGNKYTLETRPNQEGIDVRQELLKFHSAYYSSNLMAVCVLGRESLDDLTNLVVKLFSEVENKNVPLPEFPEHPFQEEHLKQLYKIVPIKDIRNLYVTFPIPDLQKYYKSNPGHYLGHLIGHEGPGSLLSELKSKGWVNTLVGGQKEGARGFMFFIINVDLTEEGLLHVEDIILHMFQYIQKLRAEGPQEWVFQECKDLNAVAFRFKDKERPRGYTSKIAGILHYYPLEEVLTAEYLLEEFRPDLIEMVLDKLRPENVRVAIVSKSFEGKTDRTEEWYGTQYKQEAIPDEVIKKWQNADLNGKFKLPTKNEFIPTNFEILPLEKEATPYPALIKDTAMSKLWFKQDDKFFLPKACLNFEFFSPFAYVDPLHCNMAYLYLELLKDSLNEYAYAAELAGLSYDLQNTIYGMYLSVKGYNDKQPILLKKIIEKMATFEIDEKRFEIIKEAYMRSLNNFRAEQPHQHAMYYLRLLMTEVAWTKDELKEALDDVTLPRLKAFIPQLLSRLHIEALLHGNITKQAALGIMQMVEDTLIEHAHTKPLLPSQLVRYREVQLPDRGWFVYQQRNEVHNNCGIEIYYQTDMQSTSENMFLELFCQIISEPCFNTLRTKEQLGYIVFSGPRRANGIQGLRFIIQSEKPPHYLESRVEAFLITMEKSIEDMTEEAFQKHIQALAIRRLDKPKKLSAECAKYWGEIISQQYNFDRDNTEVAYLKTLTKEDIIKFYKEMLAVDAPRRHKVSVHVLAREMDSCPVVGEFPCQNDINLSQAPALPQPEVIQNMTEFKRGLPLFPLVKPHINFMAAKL", "assay": "Sensitivity of IDE-WT to NEM, GSNO and H2O2", "assay_type": "biochemical", "settings": "for inactivation of IDE by NEM / H2O2 / GSNO (in words): substrates mimicking both Aβ and bradykinin"}, "IDE-CF [7]": {"biological_target": "T3, IDE-CF (Homo sapiens, UniProt P14735, C110L/C171S/C178A/C257V/C414L/C573N/C590S/C789S/C812A/C819A/C904S/C966N/C974A)", "T3 sequence (P14735 whole entry C110L/C171S/C178A/C257V/C414L/C573N/C590S/C789S/C812A/C819A/C904S/C966N/C974A)": "as the sequence (P14735 whole entry C110L/C171S/C178A/C257V/C414L/C573N/C590S/C789S/C812A/C819A/C904S/C966N/C974A) above", "assay": "Sensitivity of cysteine-free IDE-CF to NEM, GSNO and H2O2", "assay_type": "biochemical"}, "IDE-CF-123": {"test_system": "IDE-CF-123", "assay": "Sensitivity of IDE-CF-123 to NEM, GSNO and H2O2", "assay_type": "biochemical, human", "settings": "for inhibition by GSNO / H2O2 (in words): IDE-CF-123, substrate V or FAβB; for sensitivity to GSNO / H2O2 relative to IDE-WT (in words): IDE-CF-123 compared to IDE-WT"}, "IDE-CF-4": {"test_system": "IDE-CF-4", "assay": "Sensitivity of IDE-CF-4 to NEM, GSNO and H2O2", "assay_type": "biochemical, human", "settings": "for inhibition by GSNO / H2O2 (in words): IDE-CF-4, substrate V or FAβB"}, "IDE-CF-A819C": {"test_system": "IDE-CF-A819C", "assay": "Sensitivity of IDE-CF-A819C to NEM, GSNO and H2O2", "assay_type": "biochemical, human", "settings": "for sensitivity to GSNO / H2O2 relative to IDE-WT (in words): IDE-CF-A819C compared to IDE-WT; for NEM sensitivity (in words): IDE-CF-A819C"}, "rat IDE": {"test_system": "rat IDE", "settings": "cited from earlier work"}, "IDE [8]": {"test_system": "IDE", "settings": "cited from earlier work"}, "IDE-WT [9]": {"biological_target": "T2, IDE-WT", "assay": "Specific activity of IDE-WT with substrate V", "assay_type": "biochemical", "settings": "0.5 μM fluorogenic substrate V"}, "IDE-CF [10]": {"biological_target": "T3, IDE-CF", "assay": "Specific activity of IDE-CF with substrate V", "assay_type": "biochemical", "settings": "0.5 μM fluorogenic substrate V"}, "IDE M1": {"test_system": "IDE M1", "assay": "NEM sensitivity of IDE mutant M1", "assay_type": "biochemical, human", "settings": "IDE M1 (C904S/C966N), 0.2 and 1 mM NEM, 1 h, substrate V"}, "IDE M2": {"test_system": "IDE M2", "assay": "NEM sensitivity of IDE mutant M2", "assay_type": "biochemical, human", "settings": "IDE M2 (C789S/C904S/C966N), 0.2 and 1 mM NEM, 1 h, substrate V"}, "IDE M3": {"test_system": "IDE M3", "assay": "NEM sensitivity of IDE mutant M3", "assay_type": "biochemical, human", "settings": "IDE M3 (C812A/C819A/C904S/C966N), 0.2 and 1 mM NEM, 1 h, substrate V"}, "IDE M4": {"test_system": "IDE M4", "assay": "NEM sensitivity of IDE mutant M4", "assay_type": "biochemical, human", "settings": "IDE M4 (C789S/C904S/C966N/C974A), 0.2 and 1 mM NEM, 1 h, substrate V"}, "IDE M5": {"test_system": "IDE M5", "assay": "NEM sensitivity of IDE mutant M5", "assay_type": "biochemical, human", "settings": "IDE M5 (C789S/C819A/C904S/C966N), 0.2 and 1 mM NEM, 1 h, substrate V"}, "IDE-WT-C819A": {"test_system": "IDE-WT-C819A", "assay": "NEM sensitivity of IDE-WT-C819A", "assay_type": "biochemical, human", "settings": "0–1 mM NEM, substrate V, compared to IDE-CF4 and IDE-WT"}, "IDE-CF-A812C": {"test_system": "IDE-CF-A812C", "assay": "NEM sensitivity of IDE-CF-A812C", "assay_type": "biochemical, human", "settings": "fully purified, 0.15, 0.6 and 2.5 mM NEM, 1 h, substrate V"}, "812C mutant of IDE": {"test_system": "812C mutant of IDE", "settings": "single 812C mutant, only Ni-NTA purified; cited from earlier work"}}, "note": "“Also recorded” adds a separate entry of the source."}
{"molecule": "bradykinin: vasoactive nonapeptide hormone of the family of kinins, purchased from AnaSpec (RPPGFSPFR)", "values": [{"measurement": "kcat for degradation by IDE", "setting": "human IDE (IDE-CF) [1]", "value": "around 2,000 sec^−1"}, {"measurement": "affinity of IDE for kinins (in words)", "setting": "human IDE (IDE-CF) [1]; inferred from Km", "value": "low affinity"}, {"measurement": "major cleavage site", "setting": "human IDE (IDE-CF) [2]; 30 min incubation", "value": "at the Pro/Phe site; also recorded: between residues Pro^7 and Phe^8"}, {"measurement": "minor cleavage site", "setting": "human IDE (IDE-CF) [2]; 30 min incubation, MALDI-TOF peak m/z 653.32, not confirmed by MS-MS", "value": "between residues Gly^4 and Phe^5"}, {"measurement": "hydrolysis by IDE (in words)", "setting": "human IDE (IDE-CF) [2]; purified recombinant human IDE, 30-minute incubation, MALDI-TOF", "value": "hydrolyzed after 30-minute incubation"}, {"measurement": "activation of IDE (in words)", "setting": "IDE [3]", "value": "activator of IDE"}, {"measurement": "cleavage of C-terminal di-peptide", "setting": "ACE", "value": "Same cleavage of the C-terminal di-peptide"}, {"measurement": "cleavage of C-terminal di-peptide", "setting": "NEP", "value": "Same cleavage of the C-terminal di-peptide"}]}
{"molecule": "insulin: large peptide substrate of IDE", "values": [{"measurement": "Km of insulin relative to kinins", "setting": "IDE [4]", "value": "about five orders of magnitude lower"}, {"measurement": "Km", "setting": "IDE [5]", "value": 0.1, "unit": "µM"}]}
{"molecule": "OO", "note": "[H2O2, hydrogen peroxide]", "values": [{"measurement": "inactivation of IDE by NEM / H2O2 / GSNO (in words)", "setting": "IDE-WT [6]", "value": "potently inactivate the catalytic activity of IDE"}, {"measurement": "inhibition by GSNO / H2O2 / NEM (in words)", "setting": "IDE-CF [7]; cysteine-free IDE-CF, substrate V or FAβB, 1 mM reagent", "value": "insensitive to the inhibition"}, {"measurement": "inhibition by GSNO / H2O2 (in words)", "setting": "IDE-CF-123", "value": "inactivated"}, {"measurement": "sensitivity to GSNO / H2O2 relative to IDE-WT (in words)", "setting": "IDE-CF-123", "value": "more sensitive"}, {"measurement": "inhibition by GSNO / H2O2 (in words)", "setting": "IDE-CF-4", "value": "relatively resistant"}, {"measurement": "sensitivity to GSNO / H2O2 relative to IDE-WT (in words)", "setting": "IDE-CF-A819C", "value": "more sensitive"}, {"measurement": "inactivation of rat IDE (in words)", "setting": "rat IDE", "value": "inactivate rat IDE"}, {"measurement": "inhibition by sulfhydryl-directed reactions (in words)", "setting": "IDE [8]", "value": "sensitive to inhibition"}]}
{"molecule": "7-methoxycoumarin-4-yl-acetyl-NPPGFSAFK-2,4-dinitrophenyl [substrate V]", "values": [{"measurement": "specific activity", "setting": "IDE-WT [9]", "value": "3.0 ± 0.4", "unit": "min⁻¹"}, {"measurement": "specific activity", "setting": "IDE-CF [10]", "value": "4.5 ± 0.1", "unit": "min⁻¹"}]}
{"molecule": "Nc1ncnc2c1ncn2[C@@H]1O[C@H](COP(=O)(O)OP(=O)(O)OP(=O)(O)O)[C@@H](O)[C@H]1O", "note": "[ATP]", "values": [{"measurement": "activation of IDE (in words)", "setting": "IDE [3]", "value": "can activate IDE"}]}
{"molecule": "kallidin", "values": [{"measurement": "kcat for degradation by IDE", "setting": "human IDE (IDE-CF) [1]", "value": "around 2,000 sec^−1"}, {"measurement": "major cleavage site", "setting": "human IDE (IDE-CF) [2]; 30 min incubation", "value": "at the Pro/Phe site; also recorded: between Pro^8 and Phe^9"}]}
{"molecule": "N[C@@H](CCC(=O)N[C@@H](CSN=O)C(=O)NCC(=O)O)C(=O)O", "note": "[GSNO, S-nitroso-glutathione]", "values": [{"measurement": "inactivation of IDE by NEM / H2O2 / GSNO (in words)", "setting": "IDE-WT [6]", "value": "potently inactivate the catalytic activity of IDE"}, {"measurement": "inhibition by GSNO / H2O2 (in words)", "setting": "IDE-CF-123", "value": "inactivated"}, {"measurement": "sensitivity to GSNO / H2O2 relative to IDE-WT (in words)", "setting": "IDE-CF-123", "value": "more sensitive"}, {"measurement": "inhibition by GSNO / H2O2 (in words)", "setting": "IDE-CF-4", "value": "relatively resistant"}, {"measurement": "sensitivity to GSNO / H2O2 relative to IDE-WT (in words)", "setting": "IDE-CF-A819C", "value": "more sensitive"}]}
{"molecule": "CCN1C(=O)C=CC1=O", "note": "[NEM, N-ethyl-maleimide]", "values": [{"measurement": "loss of activity", "setting": "IDE-WT [6]; IDE-WT, 1 mM NEM, 1 h, 25 °C, pH 7.2, 0.5 μM substrate V, control = buffer only", "value": "greater than 95%"}, {"measurement": "NEM sensitivity (in words)", "setting": "IDE-WT [6]; IDE-WT, 0.2–1 mM NEM, 1 h, substrate V", "value": "highly sensitive to inhibition by NEM"}, {"measurement": "inactivation of IDE by NEM / H2O2 / GSNO (in words)", "setting": "IDE-WT [6]", "value": "potently inactivate the catalytic activity of IDE"}, {"measurement": "NEM sensitivity (in words)", "setting": "IDE-CF [7]; IDE-CF, 0.2–1 mM NEM, 1 h, substrate V", "value": "relatively resistant to the inactivation by NEM"}, {"measurement": "NEM sensitivity relative to IDE-WT (in words)", "setting": "IDE-CF-123; IDE-CF-123, 0.2 and 1 mM NEM, 1 h, substrate V", "value": "more sensitive"}, {"measurement": "NEM sensitivity (in words)", "setting": "IDE-CF-123; IDE-CF-123, 0.2 and 1 mM NEM, 1 h, substrate V, partially purified", "value": "highly sensitive to NEM"}, {"measurement": "NEM sensitivity (in words)", "setting": "IDE-CF-4; IDE-CF-4, 0.2 and 1 mM NEM, 1 h, substrate V, partially purified", "value": "significantly reduced sensitivity"}, {"measurement": "NEM sensitivity (in words)", "setting": "IDE M1", "value": "susceptibility to NEM"}, {"measurement": "NEM sensitivity (in words)", "setting": "IDE M2", "value": "susceptibility to NEM"}, {"measurement": "NEM sensitivity (in words)", "setting": "IDE M3", "value": "partial resistance"}, {"measurement": "NEM sensitivity (in words)", "setting": "IDE M4", "value": "susceptibility to NEM"}, {"measurement": "NEM sensitivity (in words)", "setting": "IDE M5", "value": "partial resistance"}, {"measurement": "NEM sensitivity (in words)", "setting": "IDE-WT-C819A", "value": "less sensitive to NEM inactivation"}, {"measurement": "NEM sensitivity (in words)", "setting": "IDE-CF-A819C; fully purified, 0.15, 0.6 and 2.5 mM NEM, 1 h, substrate V", "value": "only IDE-CF-A819C is highly sensitive to the NEM inactivation"}, {"measurement": "NEM sensitivity (in words)", "setting": "IDE-CF-A819C; partially purified (preliminary)", "value": "sensitivity to NEM"}, {"measurement": "NEM sensitivity (in words)", "setting": "IDE-CF-A812C", "value": "does not induce a similar inhibition effect as Cys 819"}, {"measurement": "susceptibility to alkylation (in words)", "setting": "812C mutant of IDE", "value": "susceptible to alkylation"}, {"measurement": "mode of inhibition", "setting": "IDE [8]; S-alkylation of IDE by NEM", "value": "non-competitive"}, {"measurement": "inhibition by sulfhydryl-directed reactions (in words)", "setting": "IDE [8]", "value": "sensitive to inhibition"}]}
